Values of other authors in patent US12233082B2, “Compositions and methods for multi-use suppression and acquisition of viruses” (priority 2021, dated 2025).

Assays:
HIV-1 = conditions: 500 mg valacyclovir twice daily, 12 weeks, vs placebo
HSV = conditions: 500 mg valacyclovir; expected for group 2 from previous research

For `CC(C)[C@H](N)C(=O)OCCOCn1cnc2c(=O)[nH]c(N)nc21` [valacyclovir], the “percentage of source partners with HSV-2 shedding in the genital tract (FIG. 1)” value (HSV-2; 500 mg valacyclovir daily, N=39 vs placebo N=50, PCR detectable shedding) is given as “decreased at a much quicker rate than those taking the placebo”, the “risk of transmission of HSV-2” value (HSV-2; 500 mg valacyclovir once daily, 8 months, source partners vs placebo) is given as “reduced the risk of transmission of HSV-2” and the “reduction of HIV-1 viral load in plasma, on average” value (HIV-1) is given as 0.37 log10 copies/mL. For the same compound, the “HSV PCR detectability rate median” value (HSV) was 5% of days.
